In assay [1] the test system is Clostridium ragsdalei strain P11. In words: Growth of strain P11 on organic and gaseous substrates as sole carbon and energy sources. The format is cell-based. The settings on record: for Substrate utilization, C. ragsdalei: strain P11, growth on substrate as sole carbon and energy source, final OD600; for Growth with substrate: Clostridium ragsdalei, malate and formate examined at pH 5.0-6.5. The protocol: (§1) Except for the deletion of NaHCO3 and an initial pH 6.3, growth on organic and gaseous substrates was performed as previously described (Tanner et. al., 1993). Resazurin (1 mg/L) was used as the redox indicator. Purified agar was added to the medium at a concentration of 2% for colony morphology description (Table 5). Heat labile substrates were filter sterilized (not autoclaved) and added from sterile stock solutions to a final concentration of 5 g/L before inoculation. The optimum temperature and pH (initial pH) was determined in medium containing fructose as the substrate. For determination of the optimum pH, media was buffered with HOMOPIPES (homopiperazine-N,N′-bis-2-[ethanesulfonic acid] (Research Organics, Cleveland, Ohio), MES (2-[N-morpholino]ethanesulfonic acid), or TES (N-tris [hydroxymethyl]methyl-2-aminoethanesulfonic acid) at (1.0 g/L). A 0.1 ml (˜2%) inoculum of fructose-grown cells was used to initiate growth. All media components used in these experiments were obtained from Sigma unless otherwise noted (Sigma Chemical Co., St. Louis, Mo.).
(§2) Analytical methods. […] For the substrate malate, utilization was analyzed by HPLC (“high-performance liquid chromatography”) equipped with a UV detector set at 214 nm using a Alltech, Prevail Organic Acid column (4.6×150 mm, 5 μm; Alltech, Deerfield, Mich.) with a mobile phase of 25 mM KH2PO4, pH 2.5 and 10% (v/v) methanol.

The subject of assay [2] is Clostridium ljungdahlii strain PETC. Nature of the assay: Growth of reference strain PETC on substrates as sole carbon and energy sources. The format is cell-based. The conditions noted are these: for Substrate utilization, C. ljungdahlii: strain PETC, growth on substrate as sole carbon and energy source, final OD600.
From the text: Organisms. Clostridium ljundahlii strain PETC was obtained from a fructose stock culture maintained by Dr. Ralph S. Tanner and was used as the reference control strain. Strain P11 was obtained from an anaerobic enrichment inoculated with fresh water sediment from the Duck Pond at the University of Oklahoma by a procedure described previously (Bryant, 1972) under an atmosphere of CO:N2:CO2 (75:15:10) and an initial pH of 6.0. The carbon monoxide oxidizing clostridium described within was named Clostridium ragsdalei. This bacterium was designated strain P11 and deposited with the American Type Culture Collection as strain ATCC BAA-622.
as §1, §2

Marks after values point to notes of the source that are not given here.

On to `OC[C@H]1O[C@@](CO)(O[C@H]2O[C@H](CO)[C@@H](O)[C@H](O)[C@H]2O)[C@@H](O[C@H]2O[C@H](CO)[C@@H](O)[C@H](O)[C@H]2O)[C@@H]1O` [Melizitose], for which, in assay [1], the “Substrate utilization, C. ragsdalei” value was “−”. In assay [2], the “Substrate utilization, C. ljungdahlii” value is on record as “−”. `CC(O)C(=O)[O-].[Na+]` (stereo not shown) [Na-Lactate]: the “Substrate utilization, C. ragsdalei” value in assay [1] is recorded as “−”. Besides, the “Substrate utilization, C. ljungdahlii” value in assay [2] is “−”.

For `OC[C@H]1O[C@@H](O[C@H]2[C@H](O)[C@@H](O)C(O)O[C@@H]2CO)[C@H](O)[C@@H](O)[C@H]1O` (stereo partly shown) [Lactose], the “Substrate utilization, C. ragsdalei” value in assay [1] was “−”. In addition, the “Substrate utilization, C. ljungdahlii” value in assay [2] is reported as “−”. Consider `O=C[O-].[Na+]` [Na-Formate], for which, in assay [1], the Growth with substrate entry is given as “did not initially support growth” and the “Substrate utilization, C. ragsdalei” value is “−”. Besides, the “Substrate utilization, C. ljungdahlii” value in assay [2] is reported as “−”. For the compound Inulin, the “Substrate utilization, C. ragsdalei” value in assay [1] is “−”. The “Substrate utilization, C. ljungdahlii” value in assay [2] is reported as “−”. For Glycogen, the “Substrate utilization, C. ragsdalei” value in assay [1] was “−”. For the same compound, the “Substrate utilization, C. ljungdahlii” value in assay [2] is given as “−”.

Consider `NC(=O)CC[C@H](N)C(=O)O` [Glutamine], for which the “Substrate utilization, C. ragsdalei” value in assay [1] is on record as “−”. The “Substrate utilization, C. ljungdahlii” value in assay [2] is listed as “−”. Regarding Cellulose, the “Substrate utilization, C. ragsdalei” value in assay [1] is recorded as “−”. The “Substrate utilization, C. ljungdahlii” value in assay [2] is reported as “−”. On to `O=C(CO)[C@@H](O[C@H]1O[C@H](CO)[C@@H](O)[C@H](O)[C@H]1O)[C@H](O)[C@H](O)CO` [Turanose], for which, in assay [1], the “Substrate utilization, C. ragsdalei” value is reported as “−”. The “Substrate utilization, C. ljungdahlii” value in assay [2] is recorded as “−”. As to `O=C[C@@H](O)[C@H](O)CO` [D (−) Threose], the Growth with substrate result in assay [1] is “chemoorganotrophic growth was observed”. Pectin: in assay [1], the “Substrate utilization, C. ragsdalei” value is “−”. In addition, in assay [2], the “Substrate utilization, C. ljungdahlii” value is listed as “−”.

As for `N[C@@H](Cc1c[nH]cn1)C(=O)O` [Histidine], the “Substrate utilization, C. ragsdalei” value in assay [1] is on record as “−”. As for `CC(C)O` [Iso-propanol], in assay [1], the “Substrate utilization, C. ragsdalei” value is given as “−”. Further, the “Substrate utilization, C. ljungdahlii” value in assay [2] is on record as “−”. As to `N[C@@H](CO)C(=O)O` [Serine], the Growth with substrate entry in assay [1] is reported as “chemoorganotrophic growth was observed”. Regarding `O=C(O)/C=C\C(=O)O` [Maleic acid], in assay [1], the “Substrate utilization, C. ragsdalei” value is “−”. Besides, the “Substrate utilization, C. ljungdahlii” value in assay [2] was “−”.

On to `O=C(O)CCC(=O)C(=O)O` [alpha-ketoglutarate], for which the “Substrate utilization, C. ragsdalei” value in assay [1] is “−”. The “Substrate utilization, C. ljungdahlii” value in assay [2] is given as “+ (positive (indicates a final OD600 of greater than or equal to 0.1.))”. Consider `OC[C@H]1O[C@H](O[C@H]2O[C@H](CO)[C@@H](O)[C@H](O)[C@H]2O)[C@H](O)[C@@H](O)[C@@H]1O` [Trehalose], for which, in assay [1], the “Substrate utilization, C. ragsdalei” value is recorded as “−”. Further, in assay [2], the “Substrate utilization, C. ljungdahlii” value is “−”. Take `O=C([O-])CCC(=O)[O-].[Na+].[Na+]` [Na-Succinate]: in assay [1], the “Substrate utilization, C. ragsdalei” value is reported as “−”. The “Substrate utilization, C. ljungdahlii” value in assay [2] was “−”.

Consider `CCCO` [1-Propanol], for which, in assay [1], the Growth with substrate result is listed as “chemoorganotrophic growth was observed” and the “Substrate utilization, C. ragsdalei” value was “+ (positive (indicates a final OD600 of greater than or equal to 0.1.))”. Also, in assay [2], the “Substrate utilization, C. ljungdahlii” value is “+^† (positive (indicates a final OD600 of greater than or equal to 0.1.))”. Consider Trimethoxybenzoic acid, for which the “Substrate utilization, C. ragsdalei” value in assay [1] is “−”. For the same compound, the “Substrate utilization, C. ljungdahlii” value in assay [2] is on record as “−”. With `C[N+](C)(C)CC(=O)O` [Betaine], in assay [1], the “Substrate utilization, C. ragsdalei” value is listed as “−”. Further, the “Substrate utilization, C. ljungdahlii” value in assay [2] is recorded as “−”. As for `O=C[C@H](O)[C@@H](O)CO` [L (+) Threose], in assay [1], the “Substrate utilization, C. ragsdalei” value is “−”. For the same compound, the “Substrate utilization, C. ljungdahlii” value in assay [2] is listed as “−”.

As for `OC[C@@H](O)[C@@H](O)[C@H](O)[C@H](O)CO` [Mannitol], the “Substrate utilization, C. ragsdalei” value in assay [1] is on record as “−”. In addition, the “Substrate utilization, C. ljungdahlii” value in assay [2] was “−”.

`O=C[C@H](O)[C@H](O)CO` [Erythrose]: the “Substrate utilization, C. ragsdalei” value in assay [1] was “−”. Moreover, the “Substrate utilization, C. ljungdahlii” value in assay [2] is “−”. Regarding `OC[C@H]1O[C@@](CO)(O[C@H]2O[C@H](CO)[C@@H](O)[C@H](O)[C@H]2O)[C@@H](O)[C@@H]1O` [Sucrose], the Growth with substrate result in assay [1] is listed as “chemoorganotrophic growth was observed”. For the compound `OCc1ccccc1O[C@@H]1O[C@H](CO)[C@@H](O)[C@H](O)[C@H]1O` [Salicin], the “Substrate utilization, C. ragsdalei” value in assay [1] was “−”. Moreover, the “Substrate utilization, C. ljungdahlii” value in assay [2] is given as “−”. `CC(=O)C(=O)O` [Na-Pyruvate]: the Growth with substrate result in assay [1] is listed as “chemoorganotrophic growth was observed”.

As for `N=C(N)NCCC[C@H](N)C(=O)O` [Arginine], in assay [1], the “Substrate utilization, C. ragsdalei” value is given as “−”. Consider `O=C(O)CO` [Glycolic acid], for which, in assay [1], the “Substrate utilization, C. ragsdalei” value was “−”. For the same compound, the “Substrate utilization, C. ljungdahlii” value in assay [2] is “−”. For the compound `O=C([O-])CC(O)(CC(=O)[O-])C(=O)[O-].[Na+].[Na+].[Na+]` [Na-Citrate], in assay [1], the “Substrate utilization, C. ragsdalei” value was “−”. For the same compound, the “Substrate utilization, C. ljungdahlii” value in assay [2] was “+* (positive (indicates a final OD600 of greater than or equal to 0.1.))”.

On to `CO` [Methanol], for which the “Substrate utilization, C. ragsdalei” value in assay [1] is recorded as “−”. The “Substrate utilization, C. ljungdahlii” value in assay [2] is “−”. Consider `C[C@H](O)[C@@H](O)[C@@H](O)[C@H](O)C=O` [Fucose], for which, in assay [1], the “Substrate utilization, C. ragsdalei” value was “−”. Besides, the “Substrate utilization, C. ljungdahlii” value in assay [2] is given as “−”. On to `O=C(CO)[C@@H](O)[C@H](O)[C@H](O)CO` [Fructose], for which, in assay [1], the Growth with substrate result was “chemoorganotrophic growth was observed”. Consider `OC[C@H]1O[C@H](O[C@H]2[C@H](O)[C@@H](O)[C@H](O)O[C@@H]2CO)[C@H](O)[C@@H](O)[C@@H]1O` [Maltose], for which the “Substrate utilization, C. ragsdalei” value in assay [1] is on record as “−”. Moreover, in assay [2], the “Substrate utilization, C. ljungdahlii” value was “−”. Consider `O=C([O-])/C=C/C(=O)[O-].[Na+].[Na+]` [Na-Fumarate], for which the “Substrate utilization, C. ragsdalei” value in assay [1] is reported as “−”.

Consider `O=C(O)[C@H](O)[C@@H](O)[C@H](O)[C@H](O)CO` [Gluconic acid], for which, in assay [1], the “Substrate utilization, C. ragsdalei” value is given as “−”.

`N#C[C@H](O[C@@H]1O[C@H](CO[C@@H]2O[C@H](CO)[C@@H](O)[C@H](O)[C@H]2O)[C@@H](O)[C@H](O)[C@H]1O)c1ccccc1` [Amygdalin]: the “Substrate utilization, C. ragsdalei” value in assay [1] was “−”. Besides, the “Substrate utilization, C. ljungdahlii” value in assay [2] is “−”. Regarding `C[C@H](N)C(=O)O` [Alanine], the Growth with substrate entry in assay [1] is on record as “chemoorganotrophic growth was observed”.

On to `O=C[C@H](O)[C@@H](O)[C@H](O)CO` [Xylose], for which the Growth with substrate entry in assay [1] is on record as “chemoorganotrophic growth was observed”. The compound further showed a Doubling time in assay [1] (strain P11 grown with the substrate under optimal conditions) of 0.220 h⁻¹.

As to `O=C[C@H](O)[C@@H](O)[C@@H](O)[C@H](O)CO` [Galactose], in assay [1], the “Substrate utilization, C. ragsdalei” value was “−”. In addition, the “Substrate utilization, C. ljungdahlii” value in assay [2] is listed as “−”. As to `CCC(=O)[O-].[Na+]` [Na-Propionate], the “Substrate utilization, C. ragsdalei” value in assay [1] is “−”. In addition, the “Substrate utilization, C. ljungdahlii” value in assay [2] is “−”. For `OC[C@@H](O)[C@@H](O)[C@H](O)[C@@H](O)CO` [Sorbitol], in assay [1], the “Substrate utilization, C. ragsdalei” value is listed as “−”. Also, the “Substrate utilization, C. ljungdahlii” value in assay [2] was “−”. For the compound `OCC(O)CO` [Glycerol], in assay [1], the “Substrate utilization, C. ragsdalei” value was “−”. Besides, the “Substrate utilization, C. ljungdahlii” value in assay [2] is “−”. Take `C[C@H](O)[C@H](O)[C@@H](O)[C@@H](O)C=O` [Rhamnose]: the “Substrate utilization, C. ragsdalei” value in assay [1] was “−”. With `OC[C@H]1O[C@H](OCC2O[C@@H](O)[C@H](O)[C@@H](O)[C@@H]2O)[C@H](O)[C@@H](O)[C@H]1O` (stereo partly shown) [Melibiose], the “Substrate utilization, C. ragsdalei” value in assay [1] was “−”. For the same compound, in assay [2], the “Substrate utilization, C. ljungdahlii” value is listed as “−”.

Turning to `N[C@@H](CCC(=O)O)C(=O)O` [Glutamate], in assay [1], the Growth with substrate result was “chemoorganotrophic growth was observed” and the “Substrate utilization, C. ragsdalei” value is listed as “+ (positive (indicates a final OD600 of greater than or equal to 0.1.))”. Further, the “Substrate utilization, C. ljungdahlii” value in assay [2] is “+^† (positive (indicates a final OD600 of greater than or equal to 0.1.))”. Turning to `OC[C@H]1O[C@@H](O[C@H]2[C@H](O)[C@@H](O)[C@H](O)O[C@@H]2CO)[C@H](O)[C@@H](O)[C@@H]1O` [Cellibiose], the “Substrate utilization, C. ragsdalei” value in assay [1] is listed as “−”. Further, the “Substrate utilization, C. ljungdahlii” value in assay [2] was “−”. `O=C(O)CC(O)C(=O)O` (stereo not shown) [Malic acid]: in assay [1], the Growth with substrate entry was “did not initially support growth” and the “Substrate utilization, C. ragsdalei” value is reported as “−”. In addition, the “Growth with malate as the sole carbon source after adaptation” value in assay [2] (after incubation of about thirty days, pH 5.0-6.5) is “able to grow”. Also, the “Substrate utilization, C. ljungdahlii” value in assay [2] is “−”. For the compound `O=C[C@@H](O)[C@H](O)[C@H](O)CO` [Arabinose], in assay [1], the “Substrate utilization, C. ragsdalei” value is given as “−”.
